{"source": "patent US8420859B2", "about": "“Formulations” (Syngenta Limited, priority 2006, dated 2013)"}
{"test_system": "not listed separately", "experiment": "Solubility of cyproconazole in solvent (saturated solution, HPLC)", "assay_type": "physicochemical", "details": "not given", "experimental": "A sample of a solvent (200 microlitres) was added to a 4 ml volume glass vial. The pesticide cyproconazole was added to the vial and shaken to allow thorough mixing. The vial was left to equilibrate at 25° C. for 24 hours after which time it was examined visually. If the solid had dissolved a further quantity of cyproconazole was added, the vial shaken and then left for another 24 hours. This process was repeated until a saturated solution had formed after which time the vial was left to equilibrate for one week. The glass vial was thoroughly shaken using a laboratory Whirlimixer™ (T) (Fisons Scientific Instruments Limited), once per day, during this period. After this time the sample was centrifuged, the supernatant was sampled and analysed by HPLC with reference to a known weight of pure cyproconazole, in order to determine the concentration of cyproconazole in solution.", "units": {"% cyproconazole in solution": "% w/w"}}
{"compound": "CC(C)CCC(C)NC(=O)C(C)O", "note": "(stereo not drawn) [N-1,4-dimethylpentyl lactamide]", "% cyproconazole in solution": 10.5}
{"compound": "CCN(CCO)C(=O)C(C)O", "note": "(stereo not drawn) [N-ethyl-N-2-hydroxyethyl lactamide]", "% cyproconazole in solution": 18.2}
{"compound": "CC(O)C(=O)N(CCO)Cc1ccccc1", "note": "(stereo not drawn) [N-hydroxyethyl-N-benzyl lactamide]", "% cyproconazole in solution": 25.0}
{"compound": "CCCCN(C)C(=O)C(C)O", "note": "(stereo not drawn) [N-methyl-N-butyl lactamide]", "% cyproconazole in solution": 33.0}
{"compound": "CCCN(C)C(=O)C(C)O", "note": "(stereo not drawn) [N-methyl-N-propyl lactamide]", "% cyproconazole in solution": 27.3}
{"compound": "N-2-hydroxyethyl piperidinyl lactamide", "% cyproconazole in solution": 19.3}
{"test_system": "not listed separately", "experiment": "Flash point, Seta flash 3 closed cup tester", "assay_type": "physicochemical", "details": "Seta flash 3 closed cup tester model 30000-0", "experimental": "The flammability of solvents is of concern to minimise risk during storage, transport and use. Typically the risk is assessed by measuring the flash point of the solvent. […] The measured value was 108° C.", "units": {"flash point": "°C"}}
{"compound": "CC(O)C(=O)N(C)C", "note": "(stereo not drawn) [dimethyl lactamide, N,N-dimethyl lactamide]", "flash point": 108}
{"test_system": "daphnia", "experiment": "Daphnia screening at 100 mg/l, immobility over 24 and 48 hours", "assay_type": "in vivo", "details": "48 h, single concentration 100 mg/l, 18-19° C., four replicates", "experimental": "(§1) Daphnia screening is commonly carried out to assess the inherent toxicity of chemicals. In this test five daphnia were placed in a beaker full of water held between 18 and 19° C. A lactamide chemical of interest was introduced to a concentration of 100 mg/l and the daphnia were monitored over 24 and 48 hours. Any daphnia which became immobile were recorded and the number was used for the assessment. If less than half of the daphnia were immobile after 48 hours the EC50 (48 hours) figure was classified as being >100 mg/l [otherwise, it would be less than or equal to 100 mg/l]. The lactamides of Table 6 were tested and their EC50 figures are tabulated (each experiment was replicated four times and in fact in all these tests none of the daphnia died): […]", "units": {"EC50": "µg/mL"}}
{"compound": "CCC(CC)NC(=O)C(C)O", "note": "(stereo not drawn) [N-(1-ethylpropyl) lactamide]", "EC50": "> 100"}
{"compound": "CCCCC(CC)CNC(=O)C(C)O", "note": "(stereo not drawn) [N-(2-ethylhexyl) lactamide]", "EC50": "> 100"}
{"compound": "C=CCNC(=O)C(C)O", "note": "(stereo not drawn) [N-allyl lactamide]", "EC50": "> 100"}
{"compound": "CC(O)C(=O)NN1CCOCC1", "note": "(stereo not drawn) [N-morpholinyl lactamide]", "EC50": "> 100"}
{"test_system": "daphnia", "experiment": "Daphnia screening at 100 mg/l, immobility over 24 and 48 hours", "assay_type": "in vivo", "details": "single concentration 100 mg/l, 18-19° C., four replicates", "experimental": "as §1", "units": {"EC50 (48 hours)": "µg/mL"}}
{"compound": "CCN(CCO)C(=O)C(C)O", "note": "(stereo not drawn) [N-ethyl-N-2-hydroxyethyl lactamide]", "EC50 (48 hours)": ">100"}
{"compound": "CC(O)C(=O)N(CCO)Cc1ccccc1", "note": "(stereo not drawn) [N-hydroxyethyl-N-benzyl lactamide]", "EC50 (48 hours)": ">100"}
{"compound": "CCCCN(C)C(=O)C(C)O", "note": "(stereo not drawn) [N-methyl-N-butyl lactamide]", "EC50 (48 hours)": ">100"}
{"compound": "CCCN(C)C(=O)C(C)O", "note": "(stereo not drawn) [N-methyl-N-propyl lactamide]", "EC50 (48 hours)": ">100"}
{"compound": "N-2-hydroxyethyl piperidinyl lactamide", "EC50 (48 hours)": ">100"}
{"test_system": "amaranthus retroflexus (AMARE), alopecurus myosuorides (ALOMY), chenopodium album (CHEAL) and digitaria sanguinalis (DIGSA)", "experiment": "Phytotoxic damage to young plants sprayed with solvent", "assay_type": "in vivo", "details": "in vivo", "text": "(§2) Formulations that are applied to crop plants can often lead to phytotoxic damage. This damage may take the form of the formation of necrotic spots where sprayed formulation has landed on leaf surfaces or it may take the form of chlorosis or larger scale damage to the plant such as dessication and death. In order to assess the safety of solvents to plant species they were sprayed at high usage rates and high water volumes onto very sensitive, young plants.\n(§3) The plant species amaranthus retroflexus (AMARE), alopecurus myosuorides (ALOMY), chenopodium album (CHEAL) and digitaria sanguinalis (DIGSA) were grown from seed under glass house conditions until they reached the first leaf stage. A solvent was dissolved in distilled water at a rate of 1% w/w and sprayed onto the plants at a rate of 2500 litres per hectare using a laboratory track sprayer. The plants were maintained in the glasshouse for a period of 2 weeks in order to observe any effects on the plants. Untreated plants were grown and kept under the same conditions as a direct comparison to the treated samples. A second set of identical plants was also sprayed with the novel solvent however in this case 0.5% of the commercial surfactant Tween 20 (T) was also added to the spray solution. In this experiment control plants for comparison were also sprayed with 0.5% Tween 20 but not with the solvent. Plants were examined after 1, 2, 6, 7, 9 and 13 days to try to find evidence of damage to the treated plants. All experiments were carried out in duplicate."}
{"compound": "CC(O)C(=O)NCCO", "note": "(stereo not drawn) [N-2-hydroxyethyl lactamide]", "Observed damage with solvent": "None"}
{"test_system": "amaranthus retroflexus (AMARE), alopecurus myosuorides (ALOMY), chenopodium album (CHEAL) and digitaria sanguinalis (DIGSA)", "experiment": "Phytotoxic damage to young plants sprayed with solvent", "assay_type": "in vivo", "details": "solvent 1% w/w in distilled water, 2500 litres per hectare, first leaf stage plants, examined 1-13 days, duplicate", "text": "as §2, §3"}
{"compound": "CCN(CC)CCCNC(=O)C(C)O", "note": "(stereo not drawn) [3-diethylamino propyl lactamide]", "Observed damage with solvent": "None"}
{"compound": "CC(C)CC(C)NC(=O)C(C)O", "note": "(stereo not drawn) [N-1,3-dimethyl butyl lactamide]", "Observed damage with solvent": "None"}
{"compound": "C=CCNC(=O)C(C)O", "note": "(stereo not drawn) [N-allyl lactamide]", "Observed damage with solvent": "None"}
{"compound": "CC(O)C(=O)NCc1ccccc1", "note": "(stereo not drawn) [N-benzyl Lactamide]", "Observed damage with solvent": "None"}
{"compound": "CCNC(=O)C(C)O", "note": "(stereo not drawn) [N-ethyl lactamide]", "Observed damage with solvent": "None"}
{"compound": "CCN(CCO)C(=O)C(C)O", "note": "(stereo not drawn) [N-ethyl-N-2-hydroxyethyl lactamide]", "Observed damage with solvent": "None"}
{"compound": "CC(O)C(=O)N(CCO)Cc1ccccc1", "note": "(stereo not drawn) [N-hydroxyethyl-N-benzyl lactamide]", "Observed damage with solvent": "None"}
{"compound": "CC(C)CNC(=O)C(C)O", "note": "(stereo not drawn) [N-isobutyl lactamide]", "Observed damage with solvent": "None"}
{"compound": "CC(C)NC(=O)C(C)O", "note": "(stereo not drawn) [N-isopropyl Lactamide]", "Observed damage with solvent": "None"}
{"compound": "CCCCN(C)C(=O)C(C)O", "note": "(stereo not drawn) [N-methyl-N-butyl lactamide]", "Observed damage with solvent": "None"}
{"compound": "CCCN(C)C(=O)C(C)O", "note": "(stereo not drawn) [N-methyl-N-propyl lactamide]", "Observed damage with solvent": "None"}
{"compound": "CC(O)C(=O)NN1CCOCC1", "note": "(stereo not drawn) [N-morpholinyl lactamide]", "Observed damage with solvent": "None"}
{"compound": "CC(O)C(=O)NCCCN1CCOCC1", "note": "(stereo not drawn) [N-propyl morpholynyl lactamide]", "Observed damage with solvent": "None"}
{"compound": "CC(O)C(=O)NN1CCCC1", "note": "(stereo not drawn) [N-pyrrolidinyl lactamide]", "Observed damage with solvent": "None"}
{"compound": "CCC(C)NC(=O)C(C)O", "note": "(stereo not drawn) [N-sec-butyl lactamide]", "Observed damage with solvent": "None"}
{"compound": "N-1-hyroxyethylbutyl lactamide", "Observed damage with solvent": "None"}
{"compound": "N-2-hydroxyethyl piperidinyl lactamide", "Observed damage with solvent": "None"}
{"test_system": "amaranthus retroflexus (AMARE), alopecurus myosuorides (ALOMY), chenopodium album (CHEAL) and digitaria sanguinalis (DIGSA)", "experiment": "Phytotoxic damage to young plants sprayed with solvent", "assay_type": "in vivo", "details": "solvent 1% w/w plus 0.5% Tween 20, 2500 litres per hectare, first leaf stage plants, examined 1-13 days, duplicate", "text": "as §2, §3"}
{"compound": "CC(C)CC(C)NC(=O)C(C)O", "note": "(stereo not drawn) [N-1,3-dimethyl butyl lactamide]", "Observed damage with solvent and Tween 20": "None"}
{"compound": "CCC(CO)NC(=O)C(C)O", "note": "(stereo not drawn) [N-1-ethyl-2-hydroxyethyl lactamide]", "Observed damage with solvent and Tween 20": "None"}
{"compound": "C=CCNC(=O)C(C)O", "note": "(stereo not drawn) [N-allyl lactamide]", "Observed damage with solvent and Tween 20": "None"}
{"compound": "CC(O)C(=O)NCc1ccccc1", "note": "(stereo not drawn) [N-benzyl Lactamide]", "Observed damage with solvent and Tween 20": "None"}
{"compound": "CCNC(=O)C(C)O", "note": "(stereo not drawn) [N-ethyl lactamide]", "Observed damage with solvent and Tween 20": "None"}
{"compound": "CCN(CCO)C(=O)C(C)O", "note": "(stereo not drawn) [N-ethyl-N-2-hydroxyethyl lactamide]", "Observed damage with solvent and Tween 20": "None"}
{"compound": "CC(O)C(=O)N(CCO)Cc1ccccc1", "note": "(stereo not drawn) [N-hydroxyethyl-N-benzyl lactamide]", "Observed damage with solvent and Tween 20": "None"}
{"compound": "CC(C)CNC(=O)C(C)O", "note": "(stereo not drawn) [N-isobutyl lactamide]", "Observed damage with solvent and Tween 20": "None"}
{"compound": "CC(C)NC(=O)C(C)O", "note": "(stereo not drawn) [N-isopropyl Lactamide]", "Observed damage with solvent and Tween 20": "None"}
{"compound": "CCCCN(C)C(=O)C(C)O", "note": "(stereo not drawn) [N-methyl-N-butyl lactamide]", "Observed damage with solvent and Tween 20": "None"}
{"compound": "CCCN(C)C(=O)C(C)O", "note": "(stereo not drawn) [N-methyl-N-propyl lactamide]", "Observed damage with solvent and Tween 20": "None"}
{"compound": "CC(O)C(=O)NN1CCOCC1", "note": "(stereo not drawn) [N-morpholinyl lactamide]", "Observed damage with solvent and Tween 20": "None"}
{"compound": "CC(O)C(=O)NCCCN1CCOCC1", "note": "(stereo not drawn) [N-propyl morpholynyl lactamide]", "Observed damage with solvent and Tween 20": "None"}
{"compound": "CC(O)C(=O)NN1CCCC1", "note": "(stereo not drawn) [N-pyrrolidinyl lactamide]", "Observed damage with solvent and Tween 20": "None"}
{"compound": "CCC(C)NC(=O)C(C)O", "note": "(stereo not drawn) [N-sec-butyl lactamide]", "Observed damage with solvent and Tween 20": "None"}
{"compound": "N-1-hyroxyethylbutyl lactamide", "Observed damage with solvent and Tween 20": "None"}
{"compound": "N-2-hydroxyethyl piperidinyl lactamide", "Observed damage with solvent and Tween 20": "None"}
{"test_system": "skin", "experiment": "SIFT (Skin Integrity Function Test): electrical resistance of skin after exposure", "details": "0.5% w/w aqueous solution; Table 2; untreated control 8.00", "text": "(§4) Skin irritation and damage can be measured most easily by a well-known SIFT (Skin Integrity Function Test) procedure measuring the electrical resistance of the skin after exposure to the material of interest and comparing this to the electrical resistance of untreated skin. […] SLS is used in shampoo and toothpaste formulations and is a suitable control because much is known about its irritating behaviour on human skin and eye tissue.", "units": {"Electrical resistivity": "kilo ohms"}}
{"compound": "CCCCCCCCCCCCOS(=O)(=O)[O-].[Na+]", "note": "[SLS, sodium lauryl sulphate]", "Electrical resistivity": 2.03}
{"test_system": "skin", "experiment": "SIFT (Skin Integrity Function Test): electrical resistance of skin after exposure", "details": "1.0% solution; Table 2; untreated control 8.00", "text": "as §4", "units": {"Electrical resistivity": "kilo ohms"}}
{"compound": "CCCCCCCCCCCCOS(=O)(=O)[O-].[Na+]", "note": "[SLS, sodium lauryl sulphate]", "Electrical resistivity": 1.84}
{"test_system": "skin", "experiment": "SIFT (Skin Integrity Function Test): electrical resistance of skin after exposure", "details": "1 % w/w", "text": "as §4", "units": {"Electrical resistivity": "kilo ohms"}}
{"compound": "CC(O)C(=O)N(C)C", "note": "(stereo not drawn) [dimethyl lactamide, N,N-dimethyl lactamide]", "Electrical resistivity": 8.04}
{"test_system": "skin", "experiment": "SIFT (Skin Integrity Function Test): electrical resistance of skin after exposure", "details": "10.0% solution; Table 2; untreated control 8.00", "text": "as §4", "units": {"Electrical resistivity": "kilo ohms"}}
{"compound": "CCCCCCCCCCCCOS(=O)(=O)[O-].[Na+]", "note": "[SLS, sodium lauryl sulphate]", "Electrical resistivity": 0.91}
{"test_system": "skin", "experiment": "SIFT (Skin Integrity Function Test): electrical resistance of skin after exposure", "details": "10 % w/w", "text": "as §4", "units": {"Electrical resistivity": "kilo ohms"}}
{"compound": "CC(O)C(=O)N(C)C", "note": "(stereo not drawn) [dimethyl lactamide, N,N-dimethyl lactamide]", "Electrical resistivity": 7.72}
{"test_system": "skin", "experiment": "SIFT (Skin Integrity Function Test): electrical resistance of skin after exposure", "details": "10% w/w solution; skin post-treatment; mean of five measurements; untreated control 8.00", "text": "as §4", "units": {"Electrical resistivity": "kilo ohms"}}
{"compound": "CCCCCCCCCCCCOS(=O)(=O)[O-].[Na+]", "note": "[SLS, sodium lauryl sulphate]", "Electrical resistivity": 0.91}
